Laboratory results published in PubChem BioAssay AID2060894 (Molecular Pharmacology Branch, DTP, NCI, 2025).

Tested on: K12877-001-R-J1-PDC complex spheroid viability
Assay: Anticancer human tumor K12877-001-R-J1-PDC patient-derived lung adenocarcinoma cell line growth inhibition [RAS]
Details: for IC50: curve of first compound; for viability, T/C: stronger effect = lower value
How it was run: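 Agents were tested in combination matrices in half-log decrements from a top concentration at or near clinical Cmax (10 microM if undetermined). Targets were multi-cell spheroids of tumour lines plus HUVEC and MSC stromal cells.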
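Also: spheroids exposed to agents for one week before readout.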
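For viability, T/C in this document: tumour cells co-cultured with HUVEC and mesenchymal stem cells in spheroids.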

Cc1nc(N2CCC3(CC2)COC(C)C3N)c(CO)nc1Sc1ccnc(N)c1Cl (centres undefined) + C=CC(=O)N1CCN(c2nc(OCC3CCCN3C)nc3c(F)c(-c4nc(N)cc(C)c4C(F)(F)F)c(Cl)cc23)C(C)C1
IC50 (second compound 0.00316 µM): > 10 µM
IC50 (second compound 0.01 µM): > 10 µM
IC50 (second compound 0.0316 µM): > 10 µM
IC50 (second compound 0.1 µM): > 10 µM
IC50 (second compound 0.316 µM): > 10 µM
IC50 (second compound 1 µM): > 10 µM
viability, T/C (second compound 0.00316 µM, first compound 0.0316 µM): 111%
viability, T/C (second compound 0.00316 µM, first compound 0.1 µM): 98.5%
viability, T/C (second compound 0.00316 µM, first compound 0.316 µM): 90.6%
viability, T/C (second compound 0.00316 µM, first compound 1 µM): 86.9%
viability, T/C (second compound 0.00316 µM, first compound 3.16 µM): 92.4%
viability, T/C (second compound 0.00316 µM, first compound 10 µM): 93%
viability, T/C (second compound 0.01 µM, first compound 0.0316 µM): 94.8%
viability, T/C (second compound 0.01 µM, first compound 0.1 µM): 79.3%
viability, T/C (second compound 0.01 µM, first compound 0.316 µM): 84.4%
viability, T/C (second compound 0.01 µM, first compound 1 µM): 93.3%
viability, T/C (second compound 0.01 µM, first compound 3.16 µM): 83.9%
viability, T/C (second compound 0.01 µM, first compound 10 µM): 68.5%
viability, T/C (second compound 0.0316 µM, first compound 0.0316 µM): 91.2%
viability, T/C (second compound 0.0316 µM, first compound 0.1 µM): 92.9%
viability, T/C (second compound 0.0316 µM, first compound 0.316 µM): 88.3%
viability, T/C (second compound 0.0316 µM, first compound 1 µM): 70%
viability, T/C (second compound 0.0316 µM, first compound 3.16 µM): 80.7%
viability, T/C (second compound 0.0316 µM, first compound 10 µM): 65.8%
viability, T/C (second compound 0.1 µM, first compound 0.0316 µM): 99.7%
viability, T/C (second compound 0.1 µM, first compound 0.1 µM): 87.6%
viability, T/C (second compound 0.1 µM, first compound 0.316 µM): 85.7%
viability, T/C (second compound 0.1 µM, first compound 1 µM): 86.9%
viability, T/C (second compound 0.1 µM, first compound 3.16 µM): 79.2%
viability, T/C (second compound 0.1 µM, first compound 10 µM): 60.2%
viability, T/C (second compound 0.316 µM, first compound 0.0316 µM): 84.9%
viability, T/C (second compound 0.316 µM, first compound 0.1 µM): 75.9%
viability, T/C (second compound 0.316 µM, first compound 0.316 µM): 80.5%
viability, T/C (second compound 0.316 µM, first compound 1 µM): 93.9%
viability, T/C (second compound 0.316 µM, first compound 3.16 µM): 79.4%
viability, T/C (second compound 0.316 µM, first compound 10 µM): 61.4%
viability, T/C (second compound 1 µM, first compound 0.0316 µM): 87.3%
viability, T/C (second compound 1 µM, first compound 0.1 µM): 90.8%
viability, T/C (second compound 1 µM, first compound 0.316 µM): 98.8%
viability, T/C (second compound 1 µM, first compound 1 µM): 92.6%
viability, T/C (second compound 1 µM, first compound 3.16 µM): 78.8%
viability, T/C (second compound 1 µM, first compound 10 µM): 62.2%

C[C@@H](NC(=O)c1ncnc(N)c1Cl)c1ncc(C(=O)Nc2cc(C(F)(F)F)c(Cl)cn2)s1 + CCn1c(-c2cc(N3CCN(C)CC3)cnc2C(C)OC)c2c3cc(ccc31)-c1csc(n1)CC(NC(=O)C1CC1C)C(=O)N1CCCC(N1)C(=O)OCC(C)(C)C2
IC50 (second compound 0.000949 µM): > 10 µM
IC50 (second compound 0.003 µM): > 10 µM
IC50 (second compound 0.00949 µM): > 10 µM
IC50 (second compound 0.03 µM): > 10 µM
IC50 (second compound 0.0949 µM): > 10 µM
IC50 (second compound 0.3 µM): > 10 µM
viability, T/C (second compound 0.000949 µM, first compound 0.0316 µM): 85.3%
viability, T/C (second compound 0.000949 µM, first compound 0.1 µM): 85.3%
viability, T/C (second compound 0.000949 µM, first compound 0.316 µM): 81.8%
viability, T/C (second compound 0.000949 µM, first compound 1 µM): 84.3%
viability, T/C (second compound 0.000949 µM, first compound 3.16 µM): 89.9%
viability, T/C (second compound 0.000949 µM, first compound 10 µM): 75.3%
viability, T/C (second compound 0.003 µM, first compound 0.0316 µM): 72.5%
viability, T/C (second compound 0.003 µM, first compound 0.1 µM): 78.3%
viability, T/C (second compound 0.003 µM, first compound 0.316 µM): 70.8%
viability, T/C (second compound 0.003 µM, first compound 1 µM): 83.6%
viability, T/C (second compound 0.003 µM, first compound 3.16 µM): 77.2%
viability, T/C (second compound 0.003 µM, first compound 10 µM): 83.2%
viability, T/C (second compound 0.00949 µM, first compound 0.0316 µM): 66.4%
viability, T/C (second compound 0.00949 µM, first compound 0.1 µM): 62.7%
viability, T/C (second compound 0.00949 µM, first compound 0.316 µM): 67.8%
viability, T/C (second compound 0.00949 µM, first compound 1 µM): 69.5%
viability, T/C (second compound 0.00949 µM, first compound 3.16 µM): 70.1%
viability, T/C (second compound 0.00949 µM, first compound 10 µM): 68.8%
viability, T/C (second compound 0.03 µM, first compound 0.0316 µM): 62.2%
viability, T/C (second compound 0.03 µM, first compound 0.1 µM): 58.3%
viability, T/C (second compound 0.03 µM, first compound 0.316 µM): 60%
viability, T/C (second compound 0.03 µM, first compound 1 µM): 68.3%
viability, T/C (second compound 0.03 µM, first compound 3.16 µM): 66.3%
viability, T/C (second compound 0.03 µM, first compound 10 µM): 112%
viability, T/C (second compound 0.0949 µM, first compound 0.0316 µM): 101%
viability, T/C (second compound 0.0949 µM, first compound 0.1 µM): 89.7%
viability, T/C (second compound 0.0949 µM, first compound 0.316 µM): 97.8%
viability, T/C (second compound 0.0949 µM, first compound 1 µM): 106%
viability, T/C (second compound 0.0949 µM, first compound 3.16 µM): 129%
viability, T/C (second compound 0.0949 µM, first compound 10 µM): 121%
viability, T/C (second compound 0.3 µM, first compound 0.0316 µM): 100%
viability, T/C (second compound 0.3 µM, first compound 0.1 µM): 100%
viability, T/C (second compound 0.3 µM, first compound 0.316 µM): 103%
viability, T/C (second compound 0.3 µM, first compound 1 µM): 111%
viability, T/C (second compound 0.3 µM, first compound 3.16 µM): 97.8%
viability, T/C (second compound 0.3 µM, first compound 10 µM): 111%
